These results are taken from patent publication US20230278997A1, “BICYCLO[1.1.1]PENTANE COMPOUNDS FOR THE TREATMENT AND PROPHYLAXIS OF HEPATITIS B VIRUS INFECTION” (Hoffmann-La Roche Inc., priority 2020, published 2023).

Series [1] is described as follows: Human microsome stability assay. Type of series: in vitro ADME. The following applies: 1 μM compound, 0.5 mg/mL microsomal protein, 37° C.; detection limit 6.15 mL/min/kg. Here is the method: Human Microsome Stability Assay The human microsomal stability assay is used for early assessment of metabolic stability of a test compound in human liver microsomes. Human liver microsomes (Cat. […] The reactions were initiated by adding NADPH regenerating system. […] Following precipitation and centrifugation, the amount of compound remaining in the samples were determined by LC-MS/MS. Controls of no NADPH regenerating system at zero and 30 minutes were also prepared and analyzed.

The next series has as its system HBeAg. As to the kind of experiment: microbe, parasite or virus in culture. The note with it: Hepatitis B virus, read-out: HBeAg IC50. It is filed as cell-based, HBV.
In series [2] the test system is primary human hepatocyte (PHH). The series can be described thus: Cytotoxicity in PHH natural infection assay (Cell Counting Kit-8). The following applies: therapeutic index; CC50 by CCK8 in PHH over HBsAg IC50. It is filed as cell-based. Here is the method:
Detailed procedures regarding primary human hepatocyte (PHH) HBV natural infection assay are described as below. One tube of frozen PHH (10 million cells) was thawed in 37° C. water bath and then transferred to 20 mL of PHH thawing medium (Sigma, InVitroGRO HT Medium, Cat. 503319) with gently mixing. The cells were then centrifuged at […] for 5 min, the supernatant was discarded and the tube was refilled with 25 mL of PHH plating medium (Sigma, InVitroGRO CP Medium, Cat. 503317). The tube was shaken very gently to re-suspend all cells, and then 50 μl of cells were transferred to each well of a 384-well collagen I coated plate with appropriate liquid handling equipment, e.g. Integra VIAFLO384 or Agilent Bravo. The cells were then cultured for 24 hours in a cell incubator. For HBV infection, after PHH attachment on the culture plate, the plating medium was removed and replenished with PHH culture medium containing HBV virus. The PHH culture medium was prepared with Dulbecco's Modified Eagle Medium (DMEM)/F12 (1:1 in volume ratio) containing 10% fetal bovine serum (Gibco, Cat.10099141), 5 ng/mL human epidermal growth factor (Gibco, Cat.PHG031 IL), 20 ng/mL dexamethasone (Sigma, Cat.D4902-100 mg), 250 ng/mL human recombinant insulin (Gibco, Cat.41400045) and 100 U/mL penicillin. HBV virus at 200 genome equivalent (GE) per cell with 4% PEG8000 (Sigma, Cat.P1458) containing culture medium were added to the PHH culture medium for infection. The cells were then cultured for 24 hours in cell incubator. Then the cell culture supernatant was removed. The HBV-infected PHH were cultured with sandwich culture method with PHH culture medium containing 1% DMSO and 0.25 mg/mL matrix gel for 72 hours. The supernatant was then refreshed with PHH culture medium containing different concentrations of testing compounds for two times with 72-hour interval. At the end of treatment, the supernatant was collected for viral markers measurements, including HBsAg, HBeAg, HBV DNA and cytotoxicity. HBsAg and HBeAg were detected using alphalisa method using their specific antibodies. For HBV DNA detection, HBV DNA Quantitative Fluorescence Diagnostic Kit (Sansure Biotech Inc.) was used following the manufacture's protocol. Cytotoxicity was determined using Cell Counting Kit-8 (CCK8, Dojindo Molecular Technologies, Inc.).

The subject of the next series is HBsAg. As to the kind of experiment: microbe, parasite or virus in culture. Type of series: cell-based, HBV. The note with it: Hepatitis B virus, read-out: HBsAg IC50.

For `CS(=O)(=O)C1(c2ccc(C(=O)NC34CC(c5nc(-c6cccc(Cl)c6)cs5)(C3)C4)o2)CC1` [Example 2, N-[3-[4-(3-chlorophenyl)thiazol-2-yl]-1-bicyclo[1.1.1]pentanyl]-5-(1-methylsulfonylcyclopropyl)furan-2-carboxamide], the “Clearance of human microsome” value in series [1] is given as not above 6.15 mL/min/kg. Moreover, the values for the IC50 in the series on HBeAg and in the series with HBsAg were 200 nM and 350 nM, respectively. Besides, the “TI (CC50/IC50 HBsAg)” value in series [2] is listed as 20.66.
Consider `CS(=O)(=O)C1(c2ccc(C(=O)NC34CC(c5nc(-c6ccccc6Cl)cs5)(C3)C4)o2)CC1` [Example 3, N-[3-[4-(2-chlorophenyl)thiazol-2-yl]-1-bicyclo[1.1.1]pentanyl]-5-(1-methylsulfonylcyclopropyl)furan-2-carboxamide], for which the “Clearance of human microsome” value in series [1] is recorded as not above 6.15 mL/min/kg. Moreover, the IC50 with HBeAg worked out at 500 nM; in the series on HBsAg, 670 nM. Moreover, the “TI (CC50/IC50 HBsAg)” value in series [2] is 8.85.
Turning to `CS(=O)(=O)Cc1ncc(C(=O)NC23CC(c4nc(-c5ccc(Cl)cc5)cs4)(C2)C3)o1` [Example 5, N-[3-[4-(4-chlorophenyl)thiazol-2-yl]-1-bicyclo[1.1.1]pentanyl]-2-(methylsulfonylmethyl)oxazole-5-carboxamide], the “Clearance of human microsome” value in series [1] was not above 6.15 mL/min/kg.
Same read-out and setting: next, `CS(=O)(=O)C1(c2ccc(C(=O)NC34CC(c5nc(-c6ccc(Cl)nc6)cs5)(C3)C4)o2)CC1` [Example 9, N-[3-[4-(6-chloro-3-pyridyl)thiazol-2-yl]-1-bicyclo[1.1.1]pentanyl]-5-(1-methylsulfonylcyclopropyl)furan-2-carboxamide]: not above 6.15 mL/min/kg; `CS(=O)(=O)C1(c2ccc(C(=O)NC34CC(c5nc(C6CC6)cs5)(C3)C4)o2)CC1` [Example 14, N-[3-(4-cyclopropylthiazol-2-yl)-1-bicyclo[1.1.1]pentanyl]-5-(1-methylsulfonylcyclopropyl)furan-2-carboxamide]: not above 6.15 mL/min/kg.
As to `CS(=O)(=O)C1(c2ccc(C(=O)NC34CC(c5nc(C(F)(F)F)cs5)(C3)C4)o2)CC1` [Example 16, 5-(1-methylsulfonylcyclopropyl)-N-[3-[4-(trifluoromethyl)thiazol-2-yl]-1-bicyclo[1.1.1]pentanyl]furan-2-carboxamide], the “Clearance of human microsome” value in series [1] is recorded as not above 6.15 mL/min/kg.
With `CS(=O)(=O)C1(c2ccc(C(=O)NC34CC(c5nc(-c6ccccc6)ns5)(C3)C4)o2)CC1` [Example 17, 5-(1-methylsulfonylcyclopropyl)-N-[3-(3-phenyl-1,2,4-thiadiazol-5-yl)-1-bicyclo[1.1.1]pentanyl]furan-2-carboxamide], the “Clearance of human microsome” value in series [1] is listed as not above 6.15 mL/min/kg.
As to `CS(=O)(=O)C1(c2nnc(C(=O)NC34CC(c5ncc(-c6ccc(Cl)cc6)s5)(C3)C4)o2)CC1` [Example 20, N-[3-[5-(4-chlorophenyl)thiazol-2-yl]-1-bicyclo[1.1.1]pentanyl]-5-(1-methylsulfonylcyclopropyl)-1,3,4-oxadiazole-2-carboxamide], the “Clearance of human microsome” value in series [1] is not above 6.15 mL/min/kg.
Still for that read-out and setting: in the case of `CS(=O)(=O)C1(c2ccc(C(=O)NC34CC(c5ncc(-c6ccccc6)s5)(C3)C4)o2)CC1` [Example 22, 5-(1-methylsulfonylcyclopropyl)-N-[3-(5-phenylthiazol-2-yl)-1-bicyclo[1.1.1]pentanyl]furan-2-carboxamide] it was not above 6.15 mL/min/kg; in that of `CS(=O)(=O)C1(c2ccc(C(=O)NC34CC(c5ncc(C6CC6)s5)(C3)C4)o2)CC1` [Example 23, N-[3-(5-cyclopropylthiazol-2-yl)-1-bicyclo[1.1.1]pentanyl]-5-(1-methylsulfonylcyclopropyl)furan-2-carboxamide], not above 6.15 mL/min/kg.
Turning to `CS(=O)(=O)C1(c2ccc(C(=O)NC34CC(c5ncc(Br)s5)(C3)C4)o2)CC1` [Example 24, N-[3-(5-bromothiazol-2-yl)-1-bicyclo[1.1.1]pentanyl]-5-(1-methylsulfonylcyclopropyl)furan-2-carboxamide], in series [1], the “Clearance of human microsome” value is not above 6.15 mL/min/kg.
Still for that read-out and setting: next, `CS(=O)(=O)C1(c2ccc(C(=O)NC34CC(c5nsc(-c6ccccc6)n5)(C3)C4)o2)CC1` [Example 25, 5-(1-methylsulfonylcyclopropyl)-N-[3-(5-phenyl-1,2,4-thiadiazol-3-yl)-1-bicyclo[1.1.1]pentanyl]furan-2-carboxamide]: not above 6.15 mL/min/kg; `CS(=O)(=O)C1(c2ccc(C(=O)NC34CC(c5nnc(-c6ccc(Cl)cc6)o5)(C3)C4)o2)CC1` [Example 28, N-[3-[5-(4-chlorophenyl)-1,3,4-oxadiazol-2-yl]-1-bicyclo[1.1.1]pentanyl]-5-(1-methylsulfonylcyclopropyl)furan-2-carboxamide]: not above 6.15 mL/min/kg; `CS(=O)(=O)C1(c2ccc(C(=O)NC34CC(c5cn(-c6ccc(Cl)cc6)nn5)(C3)C4)o2)CC1` [Example 29, N-[3-[1-(4-chlorophenyl)triazol-4-yl]-1-bicyclo[1.1.1]pentanyl]-5-(1-methylsulfonylcyclopropyl)furan-2-carboxamide]: not above 6.15 mL/min/kg.
Take `NC(=O)c1cc(C(=O)NC23CC(c4nc(-c5ccc(Cl)cc5)no4)(C2)C3)ccn1` [Example 36, N4-[3-[3-(4-chlorophenyl)-1,2,4-oxadiazol-5-yl]-1-bicyclo[1.1.1]pentanyl]pyridine-2,4-dicarboxamide]: the “Clearance of human microsome” value in series [1] is on record as 11.99 mL/min/kg.
In the case of `CS(=O)(=O)C1(c2ccn(C(=O)NC34CC(c5nc(-c6ccc(Cl)cc6)cs5)(C3)C4)n2)CC1` [Example 53, N-[3-[4-(4-chlorophenyl)thiazol-2-yl]-1-bicyclo[1.1.1]pentanyl]-3-(1-methylsulfonylcyclopropyl)pyrazole-1-carboxamide], the IC50 is 110 nM in the series with HBeAg and 170 nM in the series with HBsAg. Further, in series [2], the “TI (CC50/IC50 HBsAg)” value is given as 21.88.
As for `CS(=O)(=O)C1(c2ccn(C(=O)NC34CC(c5ncc(-c6ccc(Cl)cc6)s5)(C3)C4)n2)CC1` [Example 54, N-[3-[5-(4-chlorophenyl)thiazol-2-yl]-1-bicyclo[1.1.1]pentanyl]-3-(1-methylsulfonylcyclopropyl)pyrazole-1-carboxamide], the values for the IC50 in the series on HBeAg and in the series on HBsAg were 50 nM and 60 nM, respectively. Besides, the “TI (CC50/IC50 HBsAg)” value in series [2] is given as 10.83.
For `CS(=O)(=O)C1(c2ncc(C(=O)NC34CC(c5ncc(-c6ccc(Cl)cc6)s5)(C3)C4)o2)CC1` [Example 55, N-[3-[5-(4-chlorophenyl)thiazol-2-yl]-1-bicyclo[1.1.1]pentanyl]-2-(1-methylsulfonylcyclopropyl)oxazole-5-carboxamide], the results for the IC50 in the series on HBeAg and in the series with HBsAg were 70 nM and 90 nM, respectively. For the same compound, the “TI (CC50/IC50 HBsAg)” value in series [2] is 89.00.
Consider `CS(=O)(=O)C1(c2ccc(C(=O)NC34CC(c5ncc(-c6ccc(Cl)nc6)s5)(C3)C4)o2)CC1` [Example 56, N-[3-[5-(6-chloro-3-pyridyl)thiazol-2-yl]-1-bicyclo[1.1.1]pentanyl]-5-(1-methylsulfonylcyclopropyl)furan-2-carboxamide], for which, in series [1], the “Clearance of human microsome” value was not above 6.15 mL/min/kg.
Turning to `CS(=O)(=O)C1(c2ccc(C(=O)NC34CC(c5ncc(-c6ccc(Cl)cn6)s5)(C3)C4)o2)CC1` [Example 57, N-[3-[5-(5-chloro-2-pyridyl)thiazol-2-yl]-1-bicyclo[11.11]pentanyl]-5-(1-methylsulfonylcyclopropyl)furan-2-carboxamide], the “Clearance of human microsome” value in series [1] is listed as 15.39 mL/min/kg.
Consider `CS(=O)(=O)C1(c2ccc(C(=O)NC34CC(c5ncc(-c6cnc(Cl)cn6)s5)(C3)C4)o2)CC1` [Example 59, N-[3-[5-(5-chloropyrazin-2-yl)thiazol-2-yl]-1-bicyclo[1.1.1]pentanyl]-5-(1-methylsulfonylcyclopropyl)furan-2-carboxamide], for which, in series [1], the “Clearance of human microsome” value turned out to be 6.89 mL/min/kg.
